This is an account of results in paper PMC12162769, “Synthesis and Evaluation of a Hybrid Miltefosine-Silver Nanoparticle Complex: Synergistic Interaction with Benznidazole Against Trypanosoma cruzi” (Acta Parasitologica, 2025).

Series [1] concerns T. cruzi ATCC 50825 strain epimastigotes. Description: Antitrypanosomal activity, broth microdilution with MTT viability (IC50). The settings on record: for SI (selectivity index): IC50 fibroblasts (L929) / IC50 T. cruzi epimastigotes; for IC50: Trypanosoma cruzi. In kind it is cell-based, Trypanosoma cruzi. How it is done:
The Trypanosoma cruzi ATCC 50825 reference strain and the L929 mouse fibroblast cell line (American Type Culture Collection, USA) used in this study were obtained from the Parasite Bank of […] Bayar University Faculty of Medicine. […] For the determination of antitrypanosomal activity, 100 μL of RPMI-1640 medium was distributed into each well of sterile, flat-bottom, 96-well microplates. Serial dilutions of the hybrid NP complex were prepared in the range of 2500-19.5 μg/mL, miltefosine in the range of 128-1 μg/mL, and benznidazole in the range of 320-0.30 μg/mL. […] The morphological structure and motility of the epimastigotes in all wells were observed under an inverted microscope. The lowest concentration of the active substance at which all parasites were immobile and their morphology was disrupted was determined as the minimum parasiticidal concentration (MPC). […] Absorbance values were measured at 570 nm using a Thermo Varioskan model spectrophotometer (USA). IC50 values indicating antitrypanosomal activity were calculated using GraphPad Prism 8.4.2 software. Efficacy tests were repeated three times on different days.
For orientation: In broth dilution the organism is exposed to a series of concentrations in liquid medium.

Series [2] shares this test system. Kind of series: Minimum parasiticidal concentration (MPC), motility and morphology under inverted microscope. In kind it is cell-based, Trypanosoma cruzi.
Series [3] can be described thus: Cytotoxic activity, MTT assay. Format: cell-based. To be noted: mouse, L929 fibroblast cells, read-out: IC50 L929 (cytotoxicity). The protocol: The Trypanosoma cruzi ATCC 50825 reference strain and the L929 mouse fibroblast cell line (American Type Culture Collection, USA) used in this study were obtained from the Parasite Bank of […] Bayar University Faculty of Medicine. Fibroblasts preserved in liquid nitrogen were treated with RPMI-1640 and passaged into RPMI-1640 medium containing 10% FBS (fetal bovine serum). The cells were incubated at 37 °C with 5% CO2 for 48 h. The number and viability of proliferating cells were determined using Trypan Blue staining and a hemocytometer. A 100 μL cell suspension containing 10^5 cells/mL was distributed into 96-well microplates. Serial dilutions of the […] suspension (final concentration range: 5000-39 μg/mL), miltefosine (final concentration range: 512-0.125 μg/mL), and benznidazole (final concentration range: 640-0.60 μg/mL) were prepared in a separate microplate and transferred to the microplates containing the cells. The plates were incubated at 37 °C with 5% CO2 for 48 h. […] IC50 values indicating cytotoxic activity were calculated using GraphPad Prism 8.4.2 software. The cytotoxic activity tests were repeated three times on different days.

The subject of series [4] is T. cruzi amastigote. Also noted: method as in Gulin et al. (2022) [17]. The settings on record: amastigote forms; ref Gulin et al. (2022) [17]; cited from earlier work.
Series [5] deals with T. cruzi trypomastigote. Also noted: method as in Gulin et al. (2022) [17]. The settings on record: trypomastigote forms; ref Gulin et al. (2022) [17]; cited from earlier work.
Setting [6] is: ATCC50825, 24 h, 24 h, epimastigotes.
The mark [7] stands for this setting: ATCC50825, 48 h, 48 h, epimastigotes.
The mark [8] stands for this setting: ATCC50825, 72 h, 72 h, epimastigotes.

≈ marks a conversion by molar mass, not a printed value.

By IC50 is commonly meant the midpoint of a concentration-inhibition curve.

For the molecule `O=C(Cn1ccnc1[N+](=O)[O-])NCc1ccccc1` [Benznidazole], the “SI (selectivity index)” value in series [1] (24 h) is reported as 15; in series [1] (48 h), 18.2; in series [1] (72 h), 23. The half-maximal inhibitory concentration (IC50) in series [1] (setting [6]) was determined as 67.1 µg/mL (≈ 258 µM); in series [1] (setting [7]) it was 45 µg/mL (≈ 173 µM); in series [1] (setting [8]) it was 34.5 µg/mL (≈ 133 µM). The “MPC (minimum parasiticidal concentration)” value in series [2] (24 h) is recorded as 155 µg/mL; in series [2] (48 h), 155 µg/mL; in series [2] (72 h), 77.5 µg/mL. Also, the IC50 at 24 h in series [3] is 1010 µg/mL (≈ 3880 µM). Further, in series [3], the IC50 at 48 h is 822 µg/mL (≈ 3160 µM). The half-inhibitory concentration (IC50) at 72 h in series [3] came out at 807 µg/mL (≈ 3100 µM).
On to `CCCCCCCCCCCCCCCCOP(=O)([O-])OCC[N+](C)(C)C` [Miltefosine], for which the entries for the “SI (selectivity index)” value in series [1] (24 h), in series [1] (48 h) and in series [1] (72 h) were 1.5, 2.2 and 4.2, respectively. The “IC50 T. cruzi” value in series [1] (72 h, epimastigotes) turned out to be 6.42 µg/mL (≈ 15.8 µM). In addition, the half-maximal inhibitory concentration (IC50) in series [1] (setting [6]) is 26.2 µg/mL (≈ 64.2 µM); in series [1] (setting [7]) it was 15 µg/mL (≈ 36.8 µM); in series [1] (setting [8]), 6.42 µg/mL (≈ 15.8 µM); in series [4] it was 480 nM; in series [5], 550 nM. For the same molecule, in series [1] (over 24, 48 and 72 h, L929 vs T. cruzi epimastigotes), the “Selectivity (SI) as worded” value is recorded as over 1. Besides, the “MPC (minimum parasiticidal concentration)” value was 128 µg/mL in series [2] (24 h), 128 µg/mL in series [2] (48 h) and 64 µg/mL in series [2] (72 h). Moreover, the IC50 at 24 h in series [3] amounted to 38 µg/mL (≈ 93.4 µM). For the same molecule, the IC50 at 48 h in series [3] is 33.5 µg/mL (≈ 82.2 µM). In series [3], the IC50 at 72 h is 27 µg/mL (≈ 66.2 µM).
